{"source": "patent US11084800B2", "about": "(Achillion Pharmaceuticals, Inc., priority 2017, dated 2021)", "note": "pIC50: −log10 of the molar value."}
{"molecular_target": "Human Factor D (Homo sapiens (Human), UniProt P00746)", "sequence (P00746 26-253)": "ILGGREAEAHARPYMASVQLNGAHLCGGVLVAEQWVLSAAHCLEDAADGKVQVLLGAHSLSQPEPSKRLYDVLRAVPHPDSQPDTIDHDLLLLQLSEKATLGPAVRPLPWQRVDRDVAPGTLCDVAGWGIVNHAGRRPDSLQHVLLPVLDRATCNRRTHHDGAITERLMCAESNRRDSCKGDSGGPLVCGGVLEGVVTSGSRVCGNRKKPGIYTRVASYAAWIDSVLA", "assay": "Human Factor D Assay", "format": "biochemical", "settings": "Factor D inhibition, assay of Example 10; read-out: IC5 (Stars)", "method_in_brief": "(§1)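 Serum-purified Factor D (80 nM final) preincubated 5 min at room temperature with compound in 50 mM Tris, 1 M NaCl, pH 7.5. Z-L-Lys-SBz and DTNB added at 100 μM each; A405 followed every 30 s for 30 min. IC50 from nonlinear regression of rates versus concentration.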"}
{"smiles": "CC(=O)c1nn(CC(=O)N2[C@H](C(=O)NCCC3CCOCC3)C[C@@]3(C)C[C@@H]23)c2c(C)cc(-c3cnc(C)nc3)cc12", "note": "[Compound 606, (1R,3S,5R)-2-(2-(3-acetyl-7-methyl-5-(2-methylpyrimidin-5-yl)-1H-indazol-1-yl)acetyl)-5-methyl-N-(2-(tetrahydro-2H-pyran-4-yl)ethyl)-2-azabicyclo[3.1.0]hexane-3-carboxamide]", "pIC50": "5.00 to 6.00"}
{"smiles": "CC(=O)c1nn(CC(=O)N2[C@H](C(=O)Nc3nc(Br)ccc3C)C[C@@]3(CN4CC(C)(C)C4)C[C@@H]23)c2c(CF)cc(-c3cnc(C)nc3)cc12", "note": "[Compound 355, (1R,3S,5R)-2-(2-(3-acetyl-7-(fluoromethyl)-5-(2-methylpyrimidin-5-yl)-1H-indazol-1 yl)acetyl)-N-(6-bromo-3-methylpyridin-2-yl)-5-((3,3-dimethylazetidin-1-yl)methyl)-2-azabicyclo[3.1.0]hexane-3-carboxamide]", "pIC50": "> 6.00"}
{"smiles": "CC(=O)c1nn(CC(=O)N2[C@@H](C(=O)Nc3nc(Br)ccc3C)C[C@@]3(Cn4cnc(C)c4)C[C@@H]23)c2ccc(-c3cnc(C)nc3)cc12", "note": "[Compound 315, (1R,3R,5R)-2-(2-(3-Acetyl-5-(2-methylpyrimidin-5-yl)-1H-indazol-1-yl)acetyl)-N-(6-bromo-3-methylpyridin-2-yl)-5-((4-methyl-1H-imidazol-1-yl)methyl)-2-azabicyclo[3.1.0]hexane-3-carboxamide]", "pIC50": "5.00 to 6.00"}
{"smiles": "CC(=O)c1nn(CC(=O)N2[C@H](C(=O)Nc3nc(Br)ccc3C)C[C@@]3(Cn4ccc(C(C)(C)C)n4)C[C@@H]23)c2ccc(-c3cnc(C)nc3)cc12", "note": "[Compound 311, (1R,3S,5R)-2-(2-(3-acetyl-5-(2-methylpyrimidin-5-yl)-1H-indazol-1-yl)acetyl)-N-(6-bromo-3-methylpyridin-2-yl)-5-((3-(tert-butyl)-1H-pyrazol-1-yl)methyl)-2-azabicyclo[3.1.0]hexane-3-carboxamide]", "pIC50": "> 6.00"}
{"smiles": "CC(=O)c1nn(CC(=O)N2[C@H](C(=O)N[C@@H](C)c3cccc(Cl)c3F)C[C@@]3(C)C[C@@H]23)c2ccc(-c3cnc(C)nc3)cc12", "note": "[Compound 590, (1R,3S,5R)-2-(2-(3-acetyl-5-(2-methylpyrimidin-5-yl)-1H-indazol-1-yl)acetyl)-N-((S)-1-(3-chloro-2-fluorophenyl)ethyl)-5-methyl-2-azabicyclo[3.1.0]hexane-3-carboxamide]", "pIC50": "> 6.00"}
{"molecular_target": "Human Factor D (Homo sapiens (Human), UniProt P00746)", "assay": "Human Factor D Assay", "format": "biochemical", "settings": "Table 6; Factor D 80 nM, substrate Z-L-Lys-SBz; read-out: IC50", "method_in_brief": "as §1"}
{"smiles": "CC(=O)NC[C@@]12C[C@@H](C(=O)Nc3nc(Br)ccc3C)N(C(=O)Cn3nc(C(C)=O)c4cc(-c5cnc(C)nc5)cc(C)c43)[C@@H]1C2", "note": "[Compound 96, (1R,3S,5R)-5-(Acetamidomethyl)-2-(2-(3-acetyl-7-methyl-5-(2-methylpyrimidin-5-yl)-1H-indazol-1-yl)acetyl)-N-(6-bromo-3-methylpyridin-2-yl)-2-azabicyclo[3.1.0]hexane-3-carboxamide]", "pIC50": "> 6.00"}
{"smiles": "Cc1ncc(-c2cc(C)c3c(c2)c(C(N)=O)nn3CC(=O)N2[C@H](C(=O)Nc3cccc(Br)n3)C[C@@]3(C)C[C@@H]23)cn1", "note": "[Compound 58, 1-(2-((1R,3S,5R)-3-((6-Bromopyridin-2-yl)carbamoyl)-5-methyl-2-azabicyclo[3.1.0]hexan-2-yl)-2-oxoethyl)-7-methyl-5-(2-methylpyrimidin-5-yl)-1H-indazole-3-carboxamide]", "pIC50": "> 6.00"}
{"smiles": "CC(=O)c1nn(CC(=O)N2[C@H](C(=O)Nc3cccc(OC(F)(F)F)n3)C[C@@]3(C)C[C@@H]23)c2c(C)cc(-c3cnc(C)nc3)cc12", "note": "[Compound 37, (1R,3S,5R)-2-(2-(3-Acetyl-7-methyl-5-(2-methylpyrimidin-5-yl)-1H-indazol-1-yl)acetyl)-5-methyl-N-(6-(trifluoromethoxy)pyridin-2-yl)-2-azabicyclo[3.1.0]hexane-3-carboxamide]", "pIC50": "> 6.00"}
{"smiles": "CC(=O)c1nn(CC(=O)N2C3C[C@]3(CN3CCCCC3)C[C@H]2C(=O)Nc2nc(Br)ccc2C)c2ccc(-c3cnc(C)nc3)cc12", "note": "(stereo partly drawn) [Compound 4, (3S,5R)-2-(2-(3-Acetyl-5-(2-methylpyrimidin-5-yl)-1H-indazol-1-yl)acetyl)-N-(6-bromo-3-methylpyridin-2-yl)-5-(piperidin-1-ylmethyl)-2-azabicyclo[3.1.0]hexane-3-carboxamide]", "pIC50": "> 6.00"}
{"smiles": "CC(=O)c1nn(CC(=O)N2[C@H](C(=O)Nc3nc(Br)ccc3C)C[C@@]3(CN4CC5(CCC5)C4)C[C@@H]23)c2c(C)cc(-c3cnc(C)nc3)cc12", "note": "[Compound 89, (1R,3S,5R)-5-(2-Azaspiro[3.3]heptan-2-ylmethyl)-2-(2-(3-acetyl-7-methyl-5-(2-methylpyrimidin-5-yl)-1H-indazol-1-yl)acetyl)-N-(6-bromo-3-methylpyridin-2-yl)-2-azabicyclo[3.1.0]hexane-3-carboxamide]", "pIC50": "> 6.00"}
{"smiles": "CCNC[C@@]12C[C@@H](C(=O)Nc3nc(Br)ccc3C)N(C(=O)Cn3nc(C(C)=O)c4cc(-c5cnc(C)nc5)cc(C)c43)[C@@H]1C2", "note": "[Compound 132, (1R,3S,5R)-2-(2-(3-Acetyl-7-methyl-5-(2-methylpyrimidin-5-yl)-1H-indazol-1-yl)acetyl)-N-(6-bromo-3-methylpyridin-2-yl)-5-((ethylamino)methyl)-2-azabicyclo[3.1.0]hexane-3-carboxamide]", "pIC50": "> 6.00"}
{"smiles": "CC(=O)c1nn(CC(=O)N2[C@H](C(=O)Nc3nc(Br)ccc3CN3CC4(COC4)C3)C[C@@]3(C)C[C@@H]23)c2ccc(-c3cnc(C)nc3)cc12", "note": "[Compound 204]", "pIC50": "> 6.00"}
{"smiles": "CC(=O)c1nn(CC(=O)N2[C@H](C(=O)Nc3nc(Br)c(F)cc3C)C[C@@]3(C)C[C@@H]23)c2c(C)cc(-c3cnc(C)nc3)cc12", "note": "[Compound 27, (1R,3S,5R)-2-(2-(3-acetyl-7-methyl-5-(2-methylpyrimidin-5-yl)-1H-indazol-1-yl)acetyl)-N-(6-bromo-5-fluoro-3-methylpyridin-2-yl)-5-methyl-2-azabicyclo[3.1.0]hexane-3-carboxamide]", "pIC50": "> 6.00"}
{"smiles": "CC(=O)c1nn(CC(=O)N2C[C@H](F)C[C@H]2C(=O)NCC23C4C5C6C4C2C6C53)c2ccc(-c3cnc(C)nc3)cc12", "note": "(stereo partly drawn) [Compound 16, (2S,4R)-1-(2-(3-Acetyl-5-(2-methylpyrimidin-5-yl)-1H-indazol-1-yl)acetyl)-N-(cuban-1-ylmethyl)-4-fluoropyrrolidine-2-carboxamide]", "pIC50": "5.00 to 6.00"}
{"smiles": "Cc1ccc(Br)nc1NC(=O)[C@@H]1C[C@@]2(C)C[C@H]2N1C(=O)Cn1nc(C(N)=O)cc1-c1cccs1", "note": "[Compound 214, (1R,3S,5R)—N-(6-Bromo-3-methylpyridin-2-yl)-2-(2-(3-carbamoyl-5-(thiophen-2-yl)-1H-pyrazol-1-yl)acetyl)-5-methyl-2-azabicyclo[3.1.0]hexane-3-carboxamide]", "pIC50": "> 6.00"}
{"smiles": "CC(=O)c1nn(CC(=O)N2[C@H]3C[C@@]3(CN3CC4(CCCC4)C3)C[C@H]2C(=O)Nc2nc(Br)ccc2C)c2cnc(-c3cnc(C)nc3)cc12", "note": "[Compound 207, (1S,3S,5S)-5-((2-azaspiro[3.4]octan-2-yl)methyl)-2-(2-(3-acetyl-5-(2-methylpyrimidin-5-yl)-1H-pyrazolo[3,4-c]pyridin-1-yl)acetyl)-N-(6-bromo-3-methylpyridin-2-yl)-2-]", "pIC50": "> 6.00"}
{"smiles": "C=CCOCc1ccc(Br)nc1NC(=O)[C@@H]1C[C@]2(COCC=C)C[C@@H]2N1C(=O)Cn1nc(C(C)=O)c2cc(-c3cnc(C)nc3)ccc21", "note": "[Compound 29, (1S,3S,5R)-2-(2-(3-Acetyl-5-(2-methylpyrimidin-5-yl)-1H-indazol-1-yl)acetyl)-5-((allyloxy)methyl)-N-(3-((allyloxy)methyl)-6-bromopyridin-2-yl)-2-azabicyclo[3.1.0]hexane-3-carboxamide]", "pIC50": "> 6.00"}
{"molecular_target": "Human Factor D (Homo sapiens (Human), UniProt P00746)", "assay": "Human Factor D Assay", "format": "biochemical", "settings": "Table 8; Factor D 80 nM, substrate Z-L-Lys-SBz; read-out: IC50", "method_in_brief": "as §1"}
{"smiles": "CC(=O)c1nn(CC(=O)N2[C@H](C(=O)Nc3nc(Br)ccc3C)C[C@@]3(CNC(=O)COCCOCCNC(=O)COCCOCCNC(=O)CC[C@H](NC(=O)CCCCCCCCCCCCCCCCC(=O)O)C(=O)O)C[C@@H]23)c2cnc(-c3cnc(C)nc3)cc12", "note": "[Compound 442, (S)-1-((1R,3S,5R)-2-(2-(3-acetyl-5-(2-methylpyrimidin-5-yl)-1H-pyrazolo[3,4-c]pyridin-1-yl)acetyl)-3-((6-bromo-3-methylpyridin-2-yl)carbamoyl)-2-azabicyclo[3.1.0]hexan-5-yl)-24-carboxy-3,12,21,26-tetraoxo-5,8,14,17-tetraoxa-2,11,20,25-tetraazatritetracontan-43-oic acid]", "pIC50": "> 6.00"}
{"smiles": "Cc1ncc(-c2ccc3c(c2)c(C(=O)NCC2CCC2)nn3CC(=O)N2[C@H](C(=O)Nc3nc(Br)ccc3C)C[C@@]3(C)C[C@@H]23)cn1", "note": "[Compound 479]", "pIC50": "5.00 to 6.00"}
{"smiles": "CCCCCCCCCCCCCCCC(=O)NCCCC[C@H](NC(=O)[C@H](CCC(=O)O)NC(=O)[C@H](Cc1ccc(O)cc1)NC(=O)[C@H](CCC(=O)O)NC(C)=O)C(=O)N[C@@H](CCC(=O)O)C(=O)N[C@@H](Cc1ccc(O)cc1)C(=O)N[C@@H](CCC(=O)O)C(=O)NC[C@@]12C[C@@H](C(=O)Nc3nc(Br)ccc3C)N(C(=O)Cn3nc(C(C)=O)c4cc(-c5cnc(C)nc5)cc(C)c43)[C@@H]1C2", "note": "[Compound 443, (4S,7S,10S,13S,16S,19S,22S)-22-acetamido-4-((((1R,3S,5R)-2-(2-(3-acetyl-7-methyl-5-(2-methylpyrimidin-5-yl)-1H-indazol-1-yl)acetyl)-3-((6-bromo-3-methylpyridin-2-yl)carbamoyl)-2-azabicyclo[3.1.0]hexan-5-yl)methyl)carbamoyl)-10,16-bis(2-carboxyethyl)-7,19-bis(4-hydroxybenzyl)-6,9,12,15,18,21-hexaoxo-13-(4-palmitamidobutyl)-5,8,11,14,17,20-hexaazapentacosanedioic acid]", "pIC50": "5.00 to 6.00"}
{"smiles": "CC(=O)c1nn(CC(=O)N2CC3(CC(C4CCCCC4)=NO3)C[C@H]2C(=O)Nc2nc(Br)ccc2C)c2c(C)cc(-c3cnc(C)nc3)cc12", "note": "(stereo partly drawn) [Compound 244, (8S)-7-(2-(3-acetyl-7-methyl-5-(2-methylpyrimidin-5-yl)-1H-indazol-1-yl)acetyl)-N-(6-bromo-3-methylpyridin-2-yl)-3-cyclohexyl-1-oxa-2,7-diazaspiro[4.4]non-2-ene-8-carboxamide]", "pIC50": "> 6.00"}
